Substitutions are numbered along the chain they refer to. Where two headings read alike, the source gives them in different places.
Tests used:
Test in all cases: URAT1 uric acid transport activity assay
Format in all cases: cell-based
[1] = target: T1, r-M481I rURAT1 point mutant (Rattus norvegicus, UniProt Q3ZAV1, M481I)
T1 sequence (Q3ZAV1 1-553 M481I): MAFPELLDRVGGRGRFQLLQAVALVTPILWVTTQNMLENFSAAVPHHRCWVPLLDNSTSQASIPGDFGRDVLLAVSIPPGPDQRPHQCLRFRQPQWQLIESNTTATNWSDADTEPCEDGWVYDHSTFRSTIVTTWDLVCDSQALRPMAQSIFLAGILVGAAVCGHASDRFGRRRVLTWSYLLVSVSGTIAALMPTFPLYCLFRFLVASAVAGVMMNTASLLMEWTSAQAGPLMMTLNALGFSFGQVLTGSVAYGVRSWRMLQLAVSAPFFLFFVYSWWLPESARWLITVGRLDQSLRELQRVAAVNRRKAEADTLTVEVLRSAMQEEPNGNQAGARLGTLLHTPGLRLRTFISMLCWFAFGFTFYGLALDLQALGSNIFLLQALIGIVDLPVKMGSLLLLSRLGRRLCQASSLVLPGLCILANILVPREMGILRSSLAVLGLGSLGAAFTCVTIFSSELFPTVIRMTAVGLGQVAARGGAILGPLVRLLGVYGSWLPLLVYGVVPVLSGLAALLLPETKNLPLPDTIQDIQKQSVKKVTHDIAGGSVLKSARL
Excerpt: (§1) hURAT1 (GenBank BC053348.1) and rURAT1 (NCBI NM_001034943.1) genes were purchased from Origene Technologies, Inc. and subcloned into pCMV6/neo using NotI, creating pCMV6/neo-hURAT1 and pCMV6/neo-rURAT1. Mutants were produced by polymerase chain reaction (PCR) or site-directed mutagenesis using the QuikChange Lightning Multi Site-Directed Mutagenesis Kit (Agilent Technologies). […] Detailed methods are provided in Supplementary Methods, and primers are listed in Supplementary Table 1. […] Residues in rURAT1 and hOAT1 that correspond to the residues in hURAT1 were identified from aligned protein sequences (Supplementary Fig. 1)[50].
(§2) DNA (10 μg) was mixed with 30 μl of DreamFect Gold (Boca Scientific) in 2 ml OptiMem (Life Technologies). After 20 minutes, 18 ml of media containing 2 × 10^7 cells in suspension was added and mixed, and 200 μl per well were plated onto white clear-bottomed poly-D-lysine coated 96-well plates (BD Biosciences). The cells were assayed the following day.
(§3) Compounds were serially diluted into assay buffer and added to the cells for 5 minutes prior to addition of radiolabelled uric acid substrate. URAT1-expressing cells were incubated with 100 μM ^14C-uric acid for 10 minutes. […] Each treatment was measured in triplicate.
(§4) Unlabelled uric acid was prepared at a 20 mM stock just prior to use in a solution containing 20 mM dibasic potassium phosphate and 20 mM potassium hydroxide.
(§5) Nonlinear regression analyses using GraphPad Prism software were used to calculate the potency of URAT1 inhibitors (IC50 values) from log (inhibitor) versus response - variable slope (four parameters) equations. Statistical significance was assessed using Student’s unpaired t-tests.

[2] = target: T2, r-M354T rURAT1 point mutant (Rattus norvegicus, UniProt Q3ZAV1, M354T)
T2 construct: expressed in transfected cells; host or cells: HEK-293T
T2 sequence (Q3ZAV1 1-553 M354T): T1 sequence (Q3ZAV1 1-553 M481I) with M354T, I481M
Excerpt: as §1, §2, §3, §4, §5

[3] = target: T3, r-T26V rURAT1 point mutant (Rattus norvegicus, UniProt Q3ZAV1, T26V)
T3 sequence (Q3ZAV1 1-553 T26V): T1 sequence (Q3ZAV1 1-553 M481I) with T26V, I481M
Excerpt: as §1, §2, §3, §4, §5

`O=C1C(CC[S+]([O-])c2ccccc2)C(=O)N(c2ccccc2)N1c1ccccc1` (stereo not shown) [sulfinpyrazone] was tested, and the “fold increased affinity of r-M481I compared to rURAT1” value ([1]; from IC50 values) was 1.7 fold, the IC50 ([1]; r-M481I, HEPES pH 7.3, 100 μM 14C-uric acid, read-out: IC50 (uric acid transport)) was 395 ± 68 µM and the IC50 ([2]; r-M354T, HEPES pH 7.3, 100 μM 14C-uric acid, read-out: IC50 (uric acid transport)) was 304 ± 38 µM. The IC50 ([3]; r-T26V, HEPES pH 7.3, 100 μM 14C-uric acid, read-out: IC50 (uric acid transport)) was 655 ± 191 µM.

For `O=C(O)CSc1nnc(Br)n1-c1ccc(C2CC2)c2ccccc12` [lesinurad, 2-((5-bromo-4-(4-cyclopropylnaphthalen-1-yl)-4H-1,2,4-triazol-3-yl)thio)acetic acid], the IC50 ([1]; r-M481I, MES pH 5.5, 100 μM 14C-uric acid, read-out: IC50 (uric acid transport)) was 71 ± 3 µM, the IC50 ([2]; r-M354T, MES pH 5.5, 100 μM 14C-uric acid, read-out: IC50 (uric acid transport)) was 56 ± 4.9 µM and the IC50 ([3]; r-T26V, MES pH 5.5, 100 μM 14C-uric acid, read-out: IC50 (uric acid transport)) was 76 ± 2.3 µM.

`CCc1oc2ccccc2c1C(=O)c1cc(Br)c(O)c(Br)c1` [benzbromarone] showed an IC50 [1] of 15 ± 1.1 µM, an IC50 [2] of 18 ± 1.7 µM and an IC50 [3] of 26 ± 4.4 µM.

Source: PMC5054527, “Mechanism of high affinity inhibition of the human urate transporter URAT1” (Scientific Reports, 2016)
